Patent US12358867B1, “Peptoid-based inhibitors of the protein arginine methyltransferase (PRMT) family” (University of North Florida Board of Trustees, priority 2020, dated 2025)
Read-outs that look alike come from different tables or passages of the source. Starred links: 1 amine or outer side, 2 acyl side, 3 side chain; linkers in the order of their positions; H or OH if unused. Non-standard residues stand in square brackets, D forms with d. Residues, ends and D or L forms follow the SMILES beside them. Gly(N-(CH2)3-guanidino) = N=C(N)NCCCNCC(=O)O; X1 = N=C(CCl)NCCCN(CC(=O)[*:2])[*:1]; Gly(N-CH2CH2OH) = O=C(O)CNCCO; Nleu = CC(C)CNCC(=O)O; Nlys = NCCCCNCC(=O)O; Sar = CNCC(=O)O

Key:
[1] = molecular target: T1, PRMT1 (Homo sapiens, UniProt Q99873); assay: Km assay, MTase-Glo Methyltransferase assay (peptoid as substrate); type: biochemical; settings: peptoid 0-1000 μM, 200 nM PRMT1
T1 construct: made in house
T1 sequence (Q99873 1-353 isoform Q99873-3, species assumed): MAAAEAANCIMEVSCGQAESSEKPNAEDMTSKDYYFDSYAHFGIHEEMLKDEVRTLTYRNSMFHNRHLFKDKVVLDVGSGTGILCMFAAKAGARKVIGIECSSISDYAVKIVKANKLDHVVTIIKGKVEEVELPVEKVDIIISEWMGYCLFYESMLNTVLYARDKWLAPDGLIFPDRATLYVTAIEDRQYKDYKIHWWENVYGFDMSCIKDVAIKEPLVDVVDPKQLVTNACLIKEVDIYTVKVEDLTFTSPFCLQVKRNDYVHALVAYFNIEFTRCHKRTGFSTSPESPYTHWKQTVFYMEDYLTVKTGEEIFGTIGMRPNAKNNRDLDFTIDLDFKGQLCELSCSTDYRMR
Experimental: The kinetics of each peptoid were determined using the MTase-Glo Methyltransferase assay kit to monitor the conversion of S-adenosylmethionine (SAM) to S-adenosylhomocysteine (SAH). Briefly, various concentrations (0-1000 μM) of the peptoid in assay buffer (20 mM Tris-HCl pH 8.0, 50 mM NaCl, 1 mM EDTA, 3 mM MgCl2, 0.1 mg/ml BSA, 1 mM DTT) were incubated at 37° C. After 10 min, 200 nM PRMT1 was added to initiate the reaction. The reaction proceeded for 10 min at 37° C. until quenched with the addition of 0.5% TFA (0.1% final concentration, 10 min, r.t.) followed by the addition of MTase-Glo Reagent to a final concentration of 1×. After 30 min incubating at r.t, MTase-Glo Detection Solution was added and incubated for 30 min at r.t. Immediately afterwards, the luminescence signal was read with a BioTek Synergy 2 Multi-Mode Microplate Reader. Luminescence signal was converted to product concentration using SAH standards (0-5 μM), following the above assay. The initial rates were fitted into equation (1) using GraFit version 7.03. V=Vmax[S]/(Km+[S]) (1) IC50 Assay

[2] = molecular target: T1, PRMT1; assay: IC50 assay, MTase-Glo Methyltransferase assay; type: biochemical
Experimental: The efficacy of the peptoid inhibitors was probed using the MTase-Glo Methyltransferase assay kit. Various concentrations (0-1000 μM) of peptoid was incubated in assay buffer (20 mM Tris-HCl pH 8.0, 50 mM NaCl, 1 mM EDTA, 3 mM MgCl2, 0.1 mg/ml BSA, 1 mM DTT) at 37° C. for 10 min. Afterward, the inhibitor was allowed to interact with 200 nM PRMT1 for 15 min at 37° C. The reaction was catalyzed with 225 μM of AcH4-21 (a PRMT1 peptide substrate), continued for 15 min at 37° C., was quenched with the addition of 0.5% TFA (0.1% final concentration, 10 min, r.t.), followed by the addition of MTase-Glo Reagent to a final concentration of 1×. After 30-min incubation at r.t., MTase-Glo Detection Solution was added and incubated for 30 min at r.t. Luminescence signal was converted to product concentration using SAH standards (0-5 μM), following the above assay. Immediately afterwards, the luminescence signal was read with a BioTek Synergy 2 Multi-Mode Microplate Reader. IC50 values were determined by fitting the data to equation (2) using GraFit version 7.03. Fractional activity of PRMT=1/(1+([I]/IC50)) (2) where [I] is the inhibitor concentration and IC50 is the concentration of inhibitor resulting in 50% PRMT activity.
The IC50 value for the peptoid inhibitors were measured using the MTase-Glo Methyltransferase assay kit (Promega). The peptoid was incubated in assay buffer (20 mM Tris-HCl pH 8.0, 50 mM NaCl, 1 mM EDTA, 3 mM MgCl2, 0.1 mg/mL BSA, 1 mM DTT) and substrate (0-1000 μM) at either 37° C. (PRMT1) or 25° C. (PRMT5). After a pre-incubation of 10 minutes, 200 nM PRMT1 or PRMT5 was added to the assay before adding in the substrate, AcH4-21, at 225 μM. The reaction proceeded for 15 minutes before being quenched with 0.5% TFA (0.1% final concentration), vortexed, and incubated for an additional 10 minutes. To detect product formation, the MTase-Glo Reagent was added for 30 minutes at r.t., followed by addition of the MTase-Glo Detection solution for an additional 30 minutes. Finally, the luminescence signal was measured using a BioTek Synergy 2 Multi-Mode Microplate Reader. The values were converted to product concentration using a standard curve of S-adenosylhomocysteine (SAH; 0-5 μM). The IC50 values were determined using equation 1 and fit to a curve using GraFit 7.03. Fractional activity of PRMT=1/(1+([I]/IC50)) (2) IC50 is the concentration of inhibitor resulting in 50% PRMT activity and [I] is the inhibitor concentration. Cell Culture and Conditions

[3] = tested on: HepaRG immortalized, terminally differentiated liver cells; settings: non-tumorigenic HepaRG; for growth over time course: 72 hour time course
Experimental: (§1) MDA-MB-468 breast carcinoma cells (ATCC; HTB132), HCT116+/+p53 colon carcinoma cells were grown in DMEM supplemented in 5% FBS. HepaRG terminally differentiated liver cell line (Thermoscientific; HPRGC10) and HepaRG-Fucci cells were grown in Williams media supplemented with Glutamax and 5% FBS and normal Human Mammary Epithelial Cells (HMEC) (ATCC; PCS-600-010) were grown in Mammary epithelial basal medium (ATCC; PCS-600-030) supplemented with mammary epithelial cell growth kit (ATCC; PCS-600-040). Cells were recovered with 0.25% trypsin-EDTA, plated on cell culture treated plates and/or coverslips according to the experimental design and incubated overnight in 37° C. humidified CO2 incubator kept at 5% CO2 (800WJ; Thermoscientific). Cells were washed twice with sterile PBS before switching to serum free treatment media along with varying concentrations of the PRMT inhibitor compound (0-40 μM).
(§2) Cell viability and growth was assessed using the crystal violet assay as described by Oliver et al., J Cell Sci, 1989). […] Cells were fixed at each time point with 100% methanol and stained with 1% crystal violet in 0.01M borate buffer (pH 8.9). Absorbance of dye eluted in 1:1 (v/v) ethanol: 0.01M HCl was checked at 650 nm by microplate reader. The cell growth rate was calculated by the following formula: Cell growth rate (%)=(A650 at n hour/A650 0 h). Each condition was tested in triplicate and repeated three independent times.

[4] = tested on: Human Mammary Epithelial Cells (HMEC); settings: normal HMEC, 72 hour time course
Experimental: as §1, §2

[5] = tested on: caspase-3 activity in HepaRG cells; settings: only at the highest dose
Experimental: Caspase-3 activity assay was performed on extracted protein lysates using colorimetric caspase-3 activity assay (K106; Biovision) as per manufacturer's protocol. Briefly, 50 μL of extracted protein was plated in a UV compatible 96 well plate. DEVD-pNA substrate in prepared 1× buffer was added to each sample. The plate was shaken for 10 minutes and incubated at 37° C. in Biorad plate reader and read at 405 nm every 10 minutes for 2 hours.

[6] = histone H4 peptoids, SAM 40 μM, substrate AcH4-21 225 μM, read-out: IC50
[7] = listed as unacetylated H4-16 warhead chloracetamidine peptoid

CC(=O)N(CCO)CC(=O)NCC(=O)N(CCCNC(=N)N)CC(=O)NCC(=O)N(CCCCN)CC(=O)NCC(=O)NCC(=O)N(CCCCN)CC(N)=O [AcH4-8] (Ac-[Gly(N-CH2CH2OH)]G[Gly(N-(CH2)3-guanidino)]G[Nlys]GG[Nlys]-NH2)
modification / product turnover as PRMT1 substrate [1]: low product turnover
IC50 [2, 6]: > 1 mM

CC(=O)N(CCO)CC(=O)NCC(=O)N(CCCNC(=N)N)CC(=O)NCC(=O)N(CCCCN)CC(=O)NCC(=O)NCC(=O)N(CCCCN)CC(=O)NCC(=O)N(CC(=O)NCC(=O)N(CCCCN)CC(=O)NCC(N)=O)CC(C)C [AcH4-13] (Ac-[Gly(N-CH2CH2OH)]G[Gly(N-(CH2)3-guanidino)]G[Nlys]GG[Nlys]G[Nleu]G[Nlys]G-NH2)
modification / product turnover as PRMT1 substrate [1]: low product turnover
IC50 [2]: > 1 mM

CC(C)CN(CC(=O)NCC(=O)N(CCCCN)CC(=O)NCC(=O)NCC(=O)N(C)CC(=O)N(CCCCN)CC(N)=O)C(=O)CNC(=O)CN(CCCCN)C(=O)CNC(=O)CNC(=O)CN(CCCCN)C(=O)CNC(=O)CN(CCCNC(=N)CCl)C(=O)CNC(=O)CNCCO [Peptoid P2] (H-[Gly(N-CH2CH2OH)]G[X1]G[Nlys]GG[Nlys]G[Nleu]G[Nlys]GG[Sar][Nlys]-NH2)
cell viability ([3]; 0-40 μM, 48 hours): no prominent change
growth over time course [3]: no detectable effect in growth
growth over time course [3, 7]: No detectable effect in growth
growth over time course [4]: no detectable effect in growth
growth over time course [4, 7]: No detectable effect in growth
caspase-3 activity [5]: minimal activation of caspase-3
caspase-3 activity [5, 7]: Only minimal activation of caspase-3

CC(=O)N(CCO)CC(=O)NCC(=O)N(CCCNC(=N)N)CC(=O)NCC(=O)N(CCCCN)CC(=O)NCC(=O)NCC(=O)N(CCCCN)CC(=O)NCC(=O)N(CC(=O)NCC(=O)N(CCCCN)CC(=O)NCC(=O)NCC(=O)N(C)CC(=O)N(CCCCN)CC(N)=O)CC(C)C [AcH4-16 peptoid] (Ac-[Gly(N-CH2CH2OH)]G[Gly(N-(CH2)3-guanidino)]G[Nlys]GG[Nlys]G[Nleu]G[Nlys]GG[Sar][Nlys]-NH2)
IC50 [2]: 0.916 ± 0.0195 mM

N=C(N)NCCCN(CC(=O)NCC(=O)N(CCCCN)CC(=O)NCC(=O)NCC(=O)N(CCCCN)CC(N)=O)C(=O)CNC(=O)CNCCO [Peptoid H4-8] (H-[Gly(N-CH2CH2OH)]G[Gly(N-(CH2)3-guanidino)]G[Nlys]GG[Nlys]-NH2)
IC50 [2, 6]: > 1 mM
inhibition of PRMT1 ([2]; up to 1000 μM): did not show any inhibition up to 1000 μM
